{"source": "patent US11214586B2", "about": "“Rhodamine triplet state complex and preparation and photodynamic therapy (PDT) study thereof” (SOUTHERN UNIVERSITY OF SCIENCE AND TECHNOLOGY, priority 2018, dated 2022)", "key": {"[1]": {"experiment": "UV/Vis absorption spectra", "format": "physicochemical", "method": "(§1) The UV-vis absorption spectra were taken on Cary 60 UV-vis spectrophotometer. Steady-state emission spectra at room temperature were recorded on an Edinburgh Instruments FLS980 fluorescence spectrometer. Quartz cuvettes (path length=1 cm) were used in all spectrophotometric and fluorometric measurements. NMR spectra were recorded on a Bruker AVANCE 400 (^1H NMR for 400 MHz and ^13C NMR for 100 MHz) Fourier transform NMR spectrometer with chemical shifts reported relative to tetramethylsilane, (CH3)4Si. High-resolution MS spectra were performed on an Orbitrap Fusion Tribrid mass spectrometer. Elemental analyses of the newly synthesized complexes were preformed on a Elementar Vario EL Cube elemental analyzer at Sun Yat-sen University. The nanosecond time-resolved transient-difference absorption spectra were detected by using Edinburgh LP920 instruments (Edinburgh Instruments, U.K.). All solutions for transient absorption studies were degassed on a high-vacuum line in a two-compartment cell consisting of a 10-ml Pyrex bulb and a 1-cm or 4-mm path length quartz cuvette and sealed from the atmosphere by a Bibby Rotaflo HP6 Teflon stopper. The solutions were rigorously degassed with at least four successive freeze-pump-thaw cycles. Emission lifetime measurements were performed using a conventional laser system. The excitation source used was a 355-nm output (third harmonic) of a Spectra-Physics Quanta-Ray Q-switched GCR-150-10 pulsed Nd-YAG laser. Luminescence decay signals were detected by a Hamamatsu R928 PMT and recorded on a Tektronix Model TDS-620A (500 MHz, 2 GS/s) digital oscilloscope and analyzed using a program for exponential fits. Absolute quantum yields were measured by HAMAMATSU-C11347."}, "[2]": {"system": "MCF-7 cells", "experiment": "Intracellular ROS, DCFH-DA assay", "format": "cell-based, human", "conditions": "5 μM, 11-W lamp for 30 min", "method": "The MCF-7 cells were seeded in eight-well chambered coverglasses (lab-Tek, Nunc, USA) and six-well plate, incubated for 24 h in 5% CO2 at 37° C. Next, added to compounds (bpy-Rho and M-Rho) in medium make the final concentrations of 5 μM compounds. After irradiation treatment (11 W lamp 30 min), cells were promptly washed with PBS and incubated with 4 μg/ml 2′7′-dichloro-fluoreseindiacetate (DCFH-DA) for 30 min, and intracellular ROS generation was evaluated by flow cytometry and confocal microscopy."}, "[3]": {"system": "MCF-7 tumor-bearing mice", "experiment": "In vivo NIRF imaging, biodistribution and tumor accumulation", "method": "The procedures were approved by the Animal Care and Use Committee (Shenzhen Institutes of Advanced Technology, Chinese Academy of Sciences). Four-8-week-old female BALB/c mice or nude mice (Vital River Laboratory Animal Technology Co. Ltd., China) were subcutaneously injected with MCF-7 cells (1×10^6) in the flank region.\nThe Maestro GNIR Flex imaging system and analysis with software from CRi was used to image tumor-bearing animals over time following i.v. treatment with Ir-Rho (200 μM, 150 μl). At each time point, the mouse was imaged at 600 nm excitation and 650 nm emission. At 24 h post injection, tumors and major organs were excised for ex vivo NIRF imaging to determine the tissue distribution of Ir-Rho. All main organs were cut with similar thickness and imaged at 600 nm excitation and 650 nm emission. The average fluorescence intensity of organs was from a region of interest (ROI) placed over the area of the organs on the image."}, "[4]": {"system": "4T1", "experiment": "Selective uptake by flow cytometry", "format": "cell-based, mouse", "conditions": "4T1, 5 μM, 2 h incubation", "method": "Tumor cells (MCF-7/A 549/HepG2/4T1) and normal cells (MCF-10A/293T/L02/NIH-3T3) (1×10^4 cells) was cultured in six-well plate for 12 h. and then Cells were changed with a medium containing 5 μM complexes (rho-bpy, rho-bpy-Pt-ph, rho-bpy-Rh-ppy, rho-bpy-Re and rho-bpy-Ir-ppy). Cells were washed three times with PBS after 2 h of incubation, Then the cells were harvested, and the fluorescence intensity of complexes were recorded by flow cytometer."}, "[5]": {"experiment": "Singlet oxygen quantum yield", "format": "physicochemical", "excerpt": "The long-lived triplet excited state of rhodamine is anticipated to interact with molecular oxygen (^3O2) to form singlet oxygen (^1O2), which is useful for PDT applications. The ability of M-Rho to produce ^1O2 has been evaluated spectroscopically by the observation of ^1O2 emission at about 1270 nm (inset of FIG. 2b). Remarkable ^1O2 emission is observed in Ir-Rho, Re-Rho and Pt-Rho but not for Rh-Rho and bpy-Rho. By monitoring the diminution of the characteristic absorption of the ^1O2 scavenger 1,3-diphenylisobenzofuran (DPBF) at 410 nm, ^1O2 generation is also confirmed and the corresponding quantum yields (ϕΔ) for the complexes are determined (Table 1). […] The rate and quantum yield of ^1O2 generation are found to vary with different metal systems.\nSinglet oxygen quantum yield was determined by comparing the ^1O2 emission intensity of Rose Bengal and M-Rho."}, "[6]": {"experiment": "Nanosecond transient absorption difference spectroscopy", "format": "physicochemical", "conditions": "measured by transient absorption in CH3CN", "excerpt": "Nanosecond transient absorption (TA) difference spectroscopy was employed to investigate the triplet excited states of M-Rho (FIG. 2c and FIGS. 16-19). Upon pulsed laser excitation at 355 nm, an intense bleaching signal at 575 nm with lifetime in microsecond range is observed, which is ascribed to the depletion of ground state rhodamine absorption. Such a long-lived excited state should be localized on the rhodamine unit, and is assigned as the ^3IL excited state of rhodamine in M-Rho. The absorption signal at 610-800 nm is due to the rhodamine ^3IL excited state absorption. In contrast, no signal from this triplet excited state is detected in bpy-Rho because of the lack of efficient ISC. On the other hand, only the transient absorption signals originating from the corresponding ^3MLCT excited states are observed in the rhodamine-free analogues (FIGS. 20-21).\nas §1"}, "[7]": {"experiment": "Steady-state emission spectra and absolute luminescence quantum yield", "format": "physicochemical", "method": "as §1"}, "[8]": {"experiment": "Singlet oxygen emission at about 1270 nm", "format": "physicochemical", "conditions": "in CH3CN", "method": "Singlet oxygen emission was detected by using FLS-980 spectrofluorometer. All of the compounds were dissolved in CH3CN. The absorbance at 532 nm was adjusted to be around 1.7 for all the compounds. Upon measurements, an 850 nm long-pass filter was inserted in between the sample and the detector to avoid many high-order diffraction from the visible emission."}, "[9]": {"conditions": "ex vivo NIRF, 24 h post-injection"}}}
{"molecule": "CCN(CC)c1ccc2c(-c3ccnc(-c4cc(C)ccn4)c3)c3ccc(=[N+](CC)CC)cc-3oc2c1.F[P-](F)(F)(F)(F)F.F[P-](F)(F)(F)(F)F.c1ccc(-c2cccc[c]2[Ir+][c]2ccccc2-c2ccccn2)nc1", "note": "[Ir-Rho]", "values": [{"measurement": "λabs", "setting": "[1]; absorption maximum, in CH3CN", "result": 575, "unit": "nm"}, {"measurement": "ε × 10^4", "setting": "[1]; molar extinction coefficient at the absorption maxima, values × 10^4", "result": 8.75, "unit": "M^−1 cm^−1"}, {"measurement": "intracellular ROS generation", "setting": "[2]", "result": "highest ROS generation ability"}, {"measurement": "liver uptake", "setting": "[3]; [9]", "result": "relatively low liver uptake"}, {"measurement": "tumor accumulation", "setting": "[3]; [9]", "result": "good tumor accumulation"}, {"measurement": "time of peak tumor uptake", "setting": "[3]; i.v. injection via the tail vein, 200 μM, 150 μl", "result": 24, "unit": "h"}, {"measurement": "contrast index (CI)", "setting": "[4]", "result": "higher than 2.5"}, {"measurement": "rate and quantum yield of 1O2 generation, ranking", "setting": "[5]; among M-Rho", "result": "highest QY"}, {"measurement": "ΦΔ (singlet oxygen quantum yield)", "setting": "[5]; relative to rose bengal (ΦΔ = 0.76)", "result": 0.62}, {"measurement": "TT (triplet-state lifetimes)", "setting": "[6]", "result": 0.82, "unit": "μs"}, {"measurement": "λem", "setting": "[7]; Conc. = 1.0 × 10^−6M in MeOH", "result": 629, "unit": "nm"}, {"measurement": "Φlum", "setting": "[7]; absolute luminescence quantum yield measured by HAMAMATSU-C11347", "result": 0.014}, {"measurement": "1O2 emission at about 1270 nm", "setting": "[8]", "result": "Remarkable"}]}
